In paper PMC10746543, “Design principles for cyclin K molecular glue degraders” (Nature Chemical Biology, 2023):
“And” between values parts separate entries of the source, which are not always exact repeats. Equal entries are not always repeated. Where two headings read alike, the source gives them in different places.

Experiments:
CDK12–cyclin K and DDB1 = molecular target: T1, CDK12–cyclin K and DDB1 (Homo sapiens, UniProt Q16531+Q9NYV4, K965R); experiment: TR-FRET ternary complex formation assay (compound titration); format: binding; conditions: for TR-FRET signal at compound concentration: replicate titrations
T1 construct: His6–CDK12 (a.a. 713–1,052); full-length or beta-propeller B domain deletion (ΔBPB: a.a. 396–705 deleted) constructs of His6–DDB1ΔBPB, StrepII–Avi–DDB1, or His6–Spy–DDB1; made in house; host or cells: Trichoplusia ni High Five insect cells (baculovirus)
Outline: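 A time delay of 70 μs preceded acquisition, limiting background fluorescence; the ratio of emission at 520 versus 490 nm gave the TR-FRET value.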

[1] = test system: cyclin K–eGFP degradation reporter; experiment: Cyclin K reporter stability analysis (dual-color cyclin K–eGFP reporter); format: cell-based, human
Outline: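 A 5 h treatment of HEK293T–Cas9 cells expressing the degradation reporter preceded flow cytometry; eGFP over mCherry, normalized to DMSO.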

HEK293T cells = experiment: Drug sensitivity assay (CellTiter-Glo viability) with or without MLN4924 pretreatment; format: cell-based, human; conditions: for EC50: Homo sapiens, HEK-293T; for Toxicity rescue: MLN4924-mediated cytotoxicity rescue, 10 µM used where n.d.
Outline: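 Cas9-expressing HEK293T cells receive either vehicle or 100 nM MLN4924, then compounds 2 h afterwards. After three days, luminescence-based viability is measured and calculated relative to DMSO.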

[2] = compound concentration 0.468 nM
[3] = compound concentration 7.92001 nM
[4] = compound concentration 15.84 nM
[5] = compound concentration 30.96 nM
[6] = compound concentration 62.6401 nM
[7] = compound concentration 125.28 nM
[8] = compound concentration 244.8 nM
[9] = compound concentration 993.601 nM
[10] = compound concentration 2001.6 nM
[11] = in vitro complex formation, 50 nM CDK12–cyclin K, 100 nM DDB1, text and figures, read-out: TR-FRET EC50
[12] = sheet MOESM7, read-out: log TR-FRET EC50 (converted)
[13] = source data sheet correlations, read-out: TR-FRET EC50
[14] = source data sheet correlations, read-out: DC50
[15] = Supplementary Table 2, HEK293T viability, 72 h, compound alone, read-out: Cellular assays EC50

T1 sequence (Q9NYV4 713-1052 K965R): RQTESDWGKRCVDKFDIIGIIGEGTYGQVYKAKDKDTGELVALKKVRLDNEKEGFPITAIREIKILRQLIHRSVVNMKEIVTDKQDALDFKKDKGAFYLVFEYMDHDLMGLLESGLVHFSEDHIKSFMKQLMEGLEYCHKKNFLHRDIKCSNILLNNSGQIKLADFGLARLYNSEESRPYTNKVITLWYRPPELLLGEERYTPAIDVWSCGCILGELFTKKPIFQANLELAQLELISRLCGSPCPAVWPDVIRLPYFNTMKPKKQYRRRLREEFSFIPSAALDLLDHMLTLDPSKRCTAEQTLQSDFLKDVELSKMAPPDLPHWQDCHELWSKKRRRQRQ
T1 sequence (O75909 1-267 partner): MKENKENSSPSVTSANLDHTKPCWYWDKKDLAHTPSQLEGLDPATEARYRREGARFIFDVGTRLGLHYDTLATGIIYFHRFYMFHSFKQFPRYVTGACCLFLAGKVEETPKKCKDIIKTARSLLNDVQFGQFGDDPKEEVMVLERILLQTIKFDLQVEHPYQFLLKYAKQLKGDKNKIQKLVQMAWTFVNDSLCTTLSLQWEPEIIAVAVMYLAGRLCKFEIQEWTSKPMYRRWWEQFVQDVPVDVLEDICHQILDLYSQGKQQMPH
T1 sequence (Q16531 whole entry): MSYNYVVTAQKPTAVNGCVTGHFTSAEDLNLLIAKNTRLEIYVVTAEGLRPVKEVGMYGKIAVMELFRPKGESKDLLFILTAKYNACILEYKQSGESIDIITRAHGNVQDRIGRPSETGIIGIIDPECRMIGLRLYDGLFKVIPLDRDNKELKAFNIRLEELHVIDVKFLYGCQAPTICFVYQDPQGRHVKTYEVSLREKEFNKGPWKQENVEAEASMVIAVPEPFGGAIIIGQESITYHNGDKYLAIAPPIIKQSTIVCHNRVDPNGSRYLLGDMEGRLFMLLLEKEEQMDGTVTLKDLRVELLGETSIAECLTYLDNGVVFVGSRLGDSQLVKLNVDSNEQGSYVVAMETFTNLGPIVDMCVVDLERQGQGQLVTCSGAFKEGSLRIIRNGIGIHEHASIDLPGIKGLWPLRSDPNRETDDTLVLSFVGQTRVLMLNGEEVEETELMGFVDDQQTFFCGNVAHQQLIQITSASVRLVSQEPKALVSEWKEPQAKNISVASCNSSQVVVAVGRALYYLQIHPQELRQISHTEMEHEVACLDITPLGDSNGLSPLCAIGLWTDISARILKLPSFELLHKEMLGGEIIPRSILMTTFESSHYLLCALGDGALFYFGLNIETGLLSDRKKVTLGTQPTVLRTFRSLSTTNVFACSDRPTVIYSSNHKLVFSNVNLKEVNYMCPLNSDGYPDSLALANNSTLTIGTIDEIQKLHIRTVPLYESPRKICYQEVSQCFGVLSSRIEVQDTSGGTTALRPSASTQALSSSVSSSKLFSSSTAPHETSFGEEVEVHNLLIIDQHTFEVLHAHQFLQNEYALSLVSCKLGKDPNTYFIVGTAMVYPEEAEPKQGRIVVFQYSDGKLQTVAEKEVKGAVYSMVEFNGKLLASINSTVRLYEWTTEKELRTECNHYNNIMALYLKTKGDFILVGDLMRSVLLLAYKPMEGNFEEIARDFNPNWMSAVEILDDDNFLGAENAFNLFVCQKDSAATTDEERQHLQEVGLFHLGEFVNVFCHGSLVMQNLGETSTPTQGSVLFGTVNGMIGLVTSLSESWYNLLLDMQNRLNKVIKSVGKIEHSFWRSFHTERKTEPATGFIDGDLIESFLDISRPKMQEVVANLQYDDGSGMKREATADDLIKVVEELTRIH

| TR-FRET signal at compound concentration (CDK12–cyclin K and DDB1; [2]) | TR-FRET signal at compound concentration (CDK12–cyclin K and DDB1; compound concentration 2.16 nM) | TR-FRET signal at compound concentration (CDK12–cyclin K and DDB1; compound concentration 3.6 nM) | TR-FRET signal at compound concentration (CDK12–cyclin K and DDB1; [3]) | TR-FRET signal at compound concentration (CDK12–cyclin K and DDB1; [4]) | TR-FRET signal at compound concentration (CDK12–cyclin K and DDB1; [5]) | TR-FRET signal at compound concentration (CDK12–cyclin K and DDB1; [6]) | TR-FRET signal at compound concentration (CDK12–cyclin K and DDB1; [7]) | TR-FRET signal at compound concentration (CDK12–cyclin K and DDB1; [8]) | TR-FRET signal at compound concentration (CDK12–cyclin K and DDB1; [9]) | TR-FRET signal at compound concentration (CDK12–cyclin K and DDB1; [10]) | EC50 (CDK12–cyclin K and DDB1; [11]) | EC50 (CDK12–cyclin K and DDB1; [12]) | EC50 (CDK12–cyclin K and DDB1; [13]) | DC50 [1, 14] | SMILES | EC50 (HEK293T cells; [15]) | Toxicity rescue (HEK293T cells; Supplementary Table 2) | also measured |
| --- | --- | --- | --- | --- | --- | --- | --- | --- | --- | --- | --- | --- | --- | --- | --- | --- | --- | --- |
| 0.285 and 0.2127 and 0.2055 | 0.3417 and 0.2944 and 0.2907 | 0.5004 and 0.4783 and 0.4869 | 0.7813 and 0.9382 and 0.8877 | 1.382 and 1.799 and 1.705 | 2.38 and 2.795 and 2.787 | 3.286 and 3.376 and 3.32 | 3.728 and 3.691 and 3.7229 | 3.806 and 3.848 and 3.815 | 3.884 and 3.899 and 3.865 | 3.902 and 3.823 and 3.872 | 21 ± 1 nM | 20.8 nM | 20.8 nM | 103 nM | CC[C@H](CO)Nc1nc(NCCCc2ccc(Cl)c(Cl)c2)c2ncn(C(C)C)c2n1 [DS65] | 528 nM | 214% | – |
| 0.2923 and 0.3076 and 0.198 and 0.2218 | 0.3989 and 0.4255 and 0.2838 and 0.3021 | 0.6137 and 0.6924 and 0.4704 and 0.4752 | 1.224 and 1.234 and 0.9118 and 0.9562 | 2 and 2.2 and 1.736 and 1.809 | 3.161 and 3.3799 and 3.037 and 2.9897 | 3.7362 and 4.009 and 3.696 and 3.655 | 3.905 and 4.159 and 3.906 and 3.9109 | 4.008 and 4.194 and 3.9625 and 4.012 | 4.134 and 4.267 and 4.125 and 4.115 | 4.074 and 4.31 and 4.121 and 4.142 | 18 ± 1 nM | 17.7 nM | 17.7 nM | 88 nM | CC[C@H](CO)Nc1nc(NCCCc2ccc(C)c(C)c2)c2ncn(C(C)C)c2n1 [DS66] | > 10000 nM | 0% | – |
| 0.3354 and 0.3368 | 0.4163 and 0.4021 | 0.5886 and 0.5847 | 0.9073 and 0.903 | 1.493 and 1.552 | 2.297 and 2.228 | 3.049 and 3.013 | 3.561 and 3.406 | 3.933 and 3.877 | 4.034 and 4.0558 | 4.271 and 4.04 | 31 ± 1 nM | 30.5 nM | 30.5 nM | 219 nM | CCc1cccc(CCCNc2nc(N[C@H](CC)CO)nc3c2ncn3C(C)C)c1 [DS67] | 517 nM | 819% | – |
| 0.3136 and 0.2898 | 0.3334 and 0.33 | 0.3697 and 0.368 | 0.4418 and 0.4327 | 0.566 and 0.543 | 0.7892 and 0.7403 | 1.141 and 1.026 | 1.566 and 1.513 | 2.027 and 2.001 | 2.439 and 2.564 | 2.241 and 2.631 | 104 ± 7 nM | – | 104 nM | 571 nM | CC[C@H](CO)Nc1nc(NCCCc2cccc(O)c2)c2ncn(C(C)C)c2n1 [DS68] | 2520 nM | 296% | TR-FRET signal (CDK12–cyclin K and DDB1; [2]): 0.3136 and 0.2898; TR-FRET signal (CDK12–cyclin K and DDB1; compound concentration 2.16 nM): 0.3334 and 0.33; TR-FRET signal (CDK12–cyclin K and DDB1; compound concentration 3.6 nM): 0.3697 and 0.368; TR-FRET signal (CDK12–cyclin K and DDB1; [3]): 0.4418 and 0.4327; TR-FRET signal (CDK12–cyclin K and DDB1; [4]): 0.566 and 0.543; TR-FRET signal (CDK12–cyclin K and DDB1; [5]): 0.7892 and 0.7403; TR-FRET signal (CDK12–cyclin K and DDB1; [6]): 1.141 and 1.026; TR-FRET signal (CDK12–cyclin K and DDB1; [7]): 1.566 and 1.513; TR-FRET signal (CDK12–cyclin K and DDB1; [8]): 2.027 and 2.001; TR-FRET signal (CDK12–cyclin K and DDB1; [9]): 2.439 and 2.564; TR-FRET signal (CDK12–cyclin K and DDB1; [10]): 2.241 and 2.631; EC50 (HEK293T cells; Supplementary Fig. 5, HEK293T, CellTiter Glo, 72h, pre-treatment with 100 nM MLN4924, read-out: Viability EC50, with MLN4924): 109000 nM |
| 0.3264 and 0.326 | 0.4029 and 0.3893 | 0.5395 and 0.5039 | 0.8326 and 0.7539 | 1.268 and 1.146 | 1.86 and 1.701 | 2.3803 and 2.291 | 2.963 and 2.837 | 3.2576 and 3.227 | 3.4627 and 3.352 | 3.462 and 3.373 | 36 ± 1 nM | 35.9 nM | 35.9 nM | 217 nM | CC[C@H](CO)Nc1nc(NCCCc2cccc(C)n2)c2ncn(C(C)C)c2n1 [DS69] | 864 nM | 599% | – |
| – | – | – | – | – | – | – | – | – | – | – | – | – | – | – | CO[C@@H](C(=O)N1Cc2n[nH]c(NC(=O)c3ccc(N4CCN(C)CC4)cc3)c2C1)c1ccccc1 [Danusertib, reference compound] | > 10000 nM | 0% | TR-FRET signal at compound concentration 4.68 nM (CDK12–cyclin K and DDB1; compound concentration 4.68 nM, raw replicate titration data): 0.1339 and 0.1541; TR-FRET signal at compound concentration 21.6 nM (CDK12–cyclin K and DDB1; compound concentration 21.6 nM, raw replicate titration data): 0.1288 and 0.1496; TR-FRET signal at compound concentration 36 nM (CDK12–cyclin K and DDB1; compound concentration 36 nM, raw replicate titration data): 0.1327 and 0.1506; TR-FRET signal at compound concentration 79.2001 nM (CDK12–cyclin K and DDB1; compound concentration 79.2001 nM, raw replicate titration data): 0.1323 and 0.1494; TR-FRET signal at compound concentration 158.4 nM (CDK12–cyclin K and DDB1; compound concentration 158.4 nM, raw replicate titration data): 0.1293 and 0.1473; TR-FRET signal at compound concentration 309.6 nM (CDK12–cyclin K and DDB1; compound concentration 309.6 nM, raw replicate titration data): 0.1264 and 0.1438; TR-FRET signal at compound concentration 626.401 nM (CDK12–cyclin K and DDB1; compound concentration 626.401 nM, raw replicate titration data): 0.1205 and 0.1382; TR-FRET signal at compound concentration 1252.8 nM (CDK12–cyclin K and DDB1; compound concentration 1252.8 nM, raw replicate titration data): 0.1096 and 0.1174; TR-FRET signal at compound concentration 2448 nM (CDK12–cyclin K and DDB1; compound concentration 2448 nM, raw replicate titration data): 0.09891 and 0.113; TR-FRET signal at compound concentration 9936.01 nM (CDK12–cyclin K and DDB1; compound concentration 9936.01 nM, raw replicate titration data): 0.07702 and 0.08712; TR-FRET signal at compound concentration 20016 nM (CDK12–cyclin K and DDB1; compound concentration 20016 nM, raw replicate titration data): 0.06845 and 0.07789; DC50 ([1]; Supplementary Table 2, HEK293T cycK-eGFP reporter, 5 h, read-out: Cellular assays DC50): > 10000 nM |
